The text below walks through data of US9586945B2, “Aminochromane, aminothiochromane and amino-1,2,3,4-tetrahydroquinoline derivatives, pharmaceutical compositions containing them, and their use in therapy” (AbbVie Deutschland GmbH & Co. KG, priority 2013, dated 2017).

The structures appear in SMILES notation.

The target in one data set is human GlyT1c transporter (Homo sapiens (Human), UniProt P48067). The data set is described as follows: Radioligand binding assay using recombinant CHO cell membranes expressing human GlyT1. To be noted: examples marked * tested as fumarate salts, read-out: radioligand binding Kiapp.
human GlyT1c transporter, sequence (P48067 whole entry): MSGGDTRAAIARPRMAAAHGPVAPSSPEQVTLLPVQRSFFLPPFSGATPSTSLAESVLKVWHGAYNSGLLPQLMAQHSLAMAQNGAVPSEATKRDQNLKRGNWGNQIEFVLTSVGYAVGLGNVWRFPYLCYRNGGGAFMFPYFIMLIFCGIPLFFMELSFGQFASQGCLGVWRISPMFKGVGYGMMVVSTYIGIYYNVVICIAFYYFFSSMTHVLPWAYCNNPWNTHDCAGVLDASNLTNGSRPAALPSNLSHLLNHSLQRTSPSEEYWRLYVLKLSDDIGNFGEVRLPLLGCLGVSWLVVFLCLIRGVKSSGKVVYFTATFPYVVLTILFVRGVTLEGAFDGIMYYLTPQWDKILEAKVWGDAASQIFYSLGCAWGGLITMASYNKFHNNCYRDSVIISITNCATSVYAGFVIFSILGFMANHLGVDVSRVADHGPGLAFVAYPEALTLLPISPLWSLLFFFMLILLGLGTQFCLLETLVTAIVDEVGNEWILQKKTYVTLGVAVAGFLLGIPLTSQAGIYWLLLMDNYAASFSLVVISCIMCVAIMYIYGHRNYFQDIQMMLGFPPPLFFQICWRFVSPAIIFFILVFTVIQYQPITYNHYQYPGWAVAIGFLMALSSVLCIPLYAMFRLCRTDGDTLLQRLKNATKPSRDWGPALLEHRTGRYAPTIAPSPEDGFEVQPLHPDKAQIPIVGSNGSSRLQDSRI
Data set [1] in a line: Metabolic stability in human liver microsomes. The format is in vitro ADME. The following applies: 0.5 μM test substance, NADPH, 37° C., scaled microsomal clearance, examples marked * tested as fumarate salts. On the procedure:
Metabolic stability was determined as follows:
0.5 μM test substance was preincubated together with human liver microsomes (0.25 mg of microsomal protein/[…]) in 0.05 M potassium phosphate buffer of pH 7.4 in microtiter plates at 37° C. for 5 min. The reaction was started by adding NADPH (1.0 mM). After 0, 5, 10, 15, 20 and 30 min the reaction was stopped and cooled with twice the amount of quench solution consisting of acetonitrile/methanol 1:1, and containing 0.2 μM carbutamide. The samples were frozen until analyzed. The remaining concentration of undegraded test substance was determined by LC MSMS. The half-life (T1/2) was determined from the gradient of the signal of test substance/unit time plot, al-lowing to calculate the half-life of the test substance, assuming first order kinetics, from the de-crease in the concentration of the compound with time. The microsomal clearance (mClint) was calculated as follows: mClint=((ln(2)/t1/2)/Microsomal Protein Concentration (mg/ml))*1000, leading to the unit of uL/min/mg. The scaled clearance (mClin_scaled) was calculated as mCLint_scaled=m CLint*(Microsomal Yield (mg/kg BW))/1000000*60, leading to the units L/hr/kg. The Microsomal Yield is defined by the specifics of the used microsomes. Calculations were modified from references: Di, The Society for Biomolecular Screening, 2003, 453-462; Obach, DMD, 1999 vol 27. N 11, 1350-1359.

Turning to `CCCS(=O)(=O)NC1CN(c2ccc3c(c2)C(Cc2ccccc2)C(NC)CO3)C1` (single isomer, unassigned) [Example 23, Cis-N-(1-(4-benzyl-3-(methylamino)chroman-6-yl)azetidin-3-yl)propane-1-sulfonamide], the Ki on human GlyT1c transporter is not above 1000 nM. Moreover, in data set [1], the “human mCl” value is on record as “≦50 L/h/Kg”.
Take `CCS(=O)(=O)NC1CN(c2ccc3c(c2)[C@H](Cc2ccccc2)[C@H](NC)CO3)C1` (relative stereo) [Example 12, Cis-N-(1-(-4-benzyl-3-(methylamino)chroman-6-yl)azetidin-3-yl)ethanesulfonamide]: the Ki on human GlyT1c transporter was not above 100 nM. The “human mCl” value in data set [1] is listed as “≦5 L/h/Kg”.
Consider `CCCS(=O)(=O)NC1CN(c2cc3c(cc2F)OCC(NC)C3Cc2ccccc2)C1` (single isomer, unassigned) [Example 27, Cis-N-(1-(4-benzyl-7-fluoro-3-(methylamino)chroman-6-yl)azetidin-3-yl)propane-1-sulfonamide], for which the Ki at human GlyT1c transporter is not above 10 nM. The “human mCl” value in data set [1] is recorded as “≦50 L/h/Kg”.
Regarding `N[C@@H]1COc2ccc(N3CC(NS(=O)(=O)CC4CC4)C3)cc2[C@@H]1Cc1ccccc1` (relative stereo) [Example 21, Cis-N-(1-(3-amino-4-benzylchroman-6-yl)azetidin-3-yl)-1-cyclopropylmethanesulfonamide], on human GlyT1c transporter, the Ki is not above 10 nM. Moreover, the “human mCl” value in data set [1] was “≦5 L/h/Kg”.
On to `CNC1COc2ccc(N3CC(NS(=O)(=O)CC4CC4)C3)cc2C1Cc1ccccc1` (racemic) [Example 13, Cis-N-(1-(4-benzyl-3-(methylamino)chroman-6-yl)azetidin-3-yl)-1-cyclopropylmethanesulfonamide], for which, on human GlyT1c transporter, the Ki was not above 10 nM. For the same molecule, the “human mCl” value in data set [1] is on record as “≦5 L/h/Kg”.
On to `CCCS(=O)(=O)NC1CN(c2ccc3c(c2)C(Cc2ccccc2)C(NC)CO3)C1` (racemic) [Example 11, Cis-N-(1-(4-benzyl-3-(methylamino)chroman-6-yl)azetidin-3-yl)propane-1-sulfonamide], for which the Ki at human GlyT1c transporter is not above 10 nM. Also, the “human mCl” value in data set [1] is recorded as “≦5 L/h/Kg”.
In the case of `CCCS(=O)(=O)NC1CN(c2cc3c(cc2F)OCC(NC)C3Cc2ccccc2)C1` (single isomer, unassigned) [Example 28, Cis-N-(1-(4-benzyl-7-fluoro-3-(methylamino)chroman-6-yl)azetidin-3-yl)propane-1-sulfonamide], at human GlyT1c transporter, the Ki was not above 100 nM. Besides, in data set [1], the “human mCl” value is “≦5 L/h/Kg”.
The like results for `CNC1COc2ccc(N3CC(NS(=O)(=O)CC4CC4)C3)cc2C1Cc1ccccc1` (single isomer, unassigned) [Example 25, Cis-N-(1-(4-benzyl-3-(methylamino)chroman-6-yl)azetidin-3-yl)-1-cyclopropylmethanesulfonamide] were, in that order, not above 1000 nM and “≦5 L/h/Kg”.
Regarding `CCCS(=O)(=O)NC1CN(c2ccc3c(c2)[C@H](Cc2ccccc2)[C@H](NCC2CC2)CO3)C1` (relative stereo) [Example 31, Cis-N-(1-(4-benzyl-3-((cyclopropylmethyl)amino)chroman-6-yl)azetidin-3-yl)propane-1-sulfonamide], the Ki at human GlyT1c transporter was not above 1000 nM. Moreover, the “human mCl” value in data set [1] is given as “≦5 L/h/Kg”.
In the case of `Cn1cc(S(=O)(=O)NC2CN(c3ccc4c(c3)[C@H](Cc3ccccc3)[C@H](N3CCC3)CO4)C2)nn1` (relative stereo) [Example 6, Cis-N-(1-(3-(azetidin-1-yl)-4-benzylchroman-6-yl)azetidin-3-yl)-1-methyl-1H-1,2,3-triazole-4-sulfonamide], the Ki on human GlyT1c transporter was not above 10 nM. Moreover, the “human mCl” value in data set [1] is on record as “≦5 L/h/Kg”.
Consider `CCCS(=O)(=O)NC1CN(c2ccc3c(c2)C(Cc2ccccc2)C(NC)CO3)C1` (single isomer, unassigned) [Example 22, Cis-N-(1-(4-benzyl-3-(methylamino)chroman-6-yl)azetidin-3-yl)propane-1-sulfonamide], for which, at human GlyT1c transporter, the Ki is not above 10 nM. Moreover, the “human mCl” value in data set [1] is given as “≦5 L/h/Kg”.
Consider `Cn1cnc(S(=O)(=O)NC2CN(c3ccc4c(c3)C(Cc3ccccc3)C(N3CCC3)CO4)C2)c1` (stereo not drawn) [Example 1, N-[1-[3-(azetidin-1-yl)-4-benzyl-chroman-6-yl]azetidin-3-yl]-1-methyl-imidazole-4-sulfonamide], for which, at human GlyT1c transporter, the Ki was not above 10 nM. The “human mCl” value in data set [1] is recorded as “≦5 L/h/Kg”.
Take `CCS(=O)(=O)NC1CN(c2ccc3c(c2)[C@H](Cc2ccccc2)[C@H](N2CCC2)CO3)C1` (relative stereo) [Example 2, Cis-N-(1-(3-(azetidin-1-yl)-4-benzylchroman-6-yl)azetidin-3-yl)ethanesulfonamide]: on human GlyT1c transporter, the Ki is not above 1000 nM. Moreover, the “human mCl” value in data set [1] is on record as “≦5 L/h/Kg”.
In the same order, the values of `CCCS(=O)(=O)NC1CN(c2ccc3c(c2)[C@H](Cc2ccccc2)[C@H](N2CCC2)CO3)C1` (relative stereo) [Example 3, Cis-N-(1-(3-(azetidin-1-yl)-4-benzylchroman-6-yl)azetidin-3-yl)propane-1-sulfonamide] are not above 100 nM and “≦5 L/h/Kg”.
Take `CCCN[C@@H]1COc2ccc(N3CC(NS(=O)(=O)CCC)C3)cc2[C@@H]1Cc1ccccc1` (relative stereo) [Example 29, Cis-N-(1-(4-benzyl-3-(propylamino)chroman-6-yl)azetidin-3-yl)propane-1-sulfonamide]: the Ki at human GlyT1c transporter was not above 100 nM. For the same molecule, in data set [1], the “human mCl” value is recorded as “≦5 L/h/Kg”.
Consider `CCCS(=O)(=O)NC1CN(c2ccc3c(c2)[C@H](Cc2ccccc2)[C@H](N(CC)CC)CO3)C1` (relative stereo) [Example 30, Cis-N-(1-(4-benzyl-3-(diethylamino)chroman-6-yl)azetidin-3-yl)propane-1-sulfonamide], for which the Ki at human GlyT1c transporter is not above 100 nM. Also, in data set [1], the “human mCl” value is “≦50 L/h/Kg”.
For the molecule `O=S(=O)(NC1CN(c2cc3c(cc2F)OC[C@@H](N2CCC2)[C@H]3Cc2ccccc2)C1)c1cccnn1` (relative stereo) [Example 9, Cis-N-(1-(3-(azetidin-1-yl)-4-benzyl-7-fluorochroman-6-yl)azetidin-3-yl)pyridazine-3-sulfonamide], at human GlyT1c transporter, the Ki was not above 1000 nM. For the same molecule, in data set [1], the “human mCl” value was “≦50 L/h/Kg”.
Take `O=S(=O)(NC1CN(c2ccc3c(c2)[C@H](Cc2ccccc2)[C@H](N2CCC2)CO3)C1)c1cccnc1F` (relative stereo) [Example 10, Cis-N-(1-(3-(azetidin-1-yl)-4-benzylchroman-6-yl)azetidin-3-yl)-2-fluoropyridine-3-sulfonamide]: the Ki on human GlyT1c transporter is not above 100 nM. The “human mCl” value in data set [1] was “≦5 L/h/Kg”.
Take `Cn1cc(S(=O)(=O)NC2CN(c3ccc4c(c3)[C@H](Cc3ccccc3)[C@H](N3CCC3)CO4)C2)cn1` (relative stereo) [Example 5, Cis-N-(1-(3-(azetidin-1-yl)-4-benzylchroman-6-yl)azetidin-3-yl)-1-methyl-1H-pyrazole-4-sulfonamide]: the Ki at human GlyT1c transporter is not above 100 nM. Moreover, in data set [1], the “human mCl” value is reported as “≦5 L/h/Kg”.
With `O=S(=O)(NC1CN(c2cc3c(cc2F)OC[C@@H](N2CCC2)[C@H]3Cc2ccccc2)C1)c1cccnc1F` (relative stereo) [Example 8, Cis-N-(1-(3-(azetidin-1-yl)-4-benzyl-7-fluorochroman-6-yl)azetidin-3-yl)-2-fluoropyridine-3-sulfonamide], the Ki on human GlyT1c transporter is not above 1000 nM. For the same molecule, the “human mCl” value in data set [1] is on record as “≦50 L/h/Kg”.
As for `CNC1COc2ccc(N3CC(NS(=O)(=O)CC4CC4)C3)cc2C1Cc1ccccc1` (single isomer, unassigned) [Example 24, Cis-N-(1-(4-benzyl-3-(methylamino)chroman-6-yl)azetidin-3-yl)-1-cyclopropylmethanesulfonamide], at human GlyT1c transporter, the Ki was not above 10 nM. Moreover, in data set [1], the “human mCl” value is reported as “≦50 L/h/Kg”.
`O=S(=O)(CC1CC1)NC1CN(c2ccc3c(c2)[C@H](Cc2ccccc2)[C@H](N2CCC2)CO3)C1` (relative stereo) [Example 4, Cis-N-(1-(3-(azetidin-1-yl)-4-benzylchroman-6-yl)azetidin-3-yl)-1-cyclopropylmethanesulfonamide]: the Ki at human GlyT1c transporter was not above 100 nM. In data set [1], the “human mCl” value is listed as “≦5 L/h/Kg”.
As to `CCCS(=O)(=O)NC1CN(c2ccc3c(c2)[C@H](Cc2ccccc2)[C@H](NC2CCC2)CO3)C1` (relative stereo) [Example 32, Cis-N-(1-(4-benzyl-3-(cyclobutylamino)chroman-6-yl)azetidin-3-yl)propane-1-sulfonamide], on human GlyT1c transporter, the Ki is not above 1000 nM. Moreover, the “human mCl” value in data set [1] was “≦5 L/h/Kg”.
Consider `O=S(=O)(NC1CN(c2cc3c(cc2F)OC[C@@H](N2CCC2)[C@H]3Cc2ccccc2)C1)c1cncc(F)c1` (relative stereo) [Example 26, Cis-1-(4-benzyl-7-fluoro-6-(3-(5-fluoropyridine-3-sulfonamido)azetidin-1-yl)chroman-3-yl)azetidin-1-ium (E)-3-carboxyacrylate], for which the Ki on human GlyT1c transporter is not above 100 nM. Also, the “human mCl” value in data set [1] is given as “≦50 L/h/Kg”.
